# Laboratory results: US20240217961A1 (MONOPTEROS THERAPEUTICS, INC., priority 2021, published 2024)
# What was measured:
# Assay in all cases: CYP phenotyping, recombinant CYP enzyme incubation
# Assay type in all cases: in vitro ADME
# CYP1A2 = target: T1, CYP1A2 (Homo sapiens, UniProt P05177)
# T1 sequence (P05177 1-516): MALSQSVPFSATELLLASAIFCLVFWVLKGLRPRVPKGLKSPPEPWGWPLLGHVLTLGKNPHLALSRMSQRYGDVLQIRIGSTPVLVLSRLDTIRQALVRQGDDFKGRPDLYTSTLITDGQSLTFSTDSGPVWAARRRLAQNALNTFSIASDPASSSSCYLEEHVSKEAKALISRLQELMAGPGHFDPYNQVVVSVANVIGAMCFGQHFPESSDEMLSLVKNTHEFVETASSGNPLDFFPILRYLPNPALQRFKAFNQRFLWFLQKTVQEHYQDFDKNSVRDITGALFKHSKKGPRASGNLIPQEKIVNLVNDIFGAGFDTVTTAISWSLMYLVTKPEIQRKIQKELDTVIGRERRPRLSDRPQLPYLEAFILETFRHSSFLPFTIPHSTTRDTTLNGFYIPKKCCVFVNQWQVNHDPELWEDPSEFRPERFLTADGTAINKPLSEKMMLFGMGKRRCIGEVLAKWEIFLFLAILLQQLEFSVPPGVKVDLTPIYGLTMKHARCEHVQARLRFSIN
# Method: (§1) These incubations were carried out at a concentration of 1 µM and contained 50 pmol/ml of CYP protein. Samples were taken at 0, 5, 10, 15, 20 and 30 minutes. The CLint and t1/2 were calculated from the data.
# CYP2C8 = target: T2, CYP2C8 (Homo sapiens, UniProt P10632)
# T2 sequence (P10632 1-490): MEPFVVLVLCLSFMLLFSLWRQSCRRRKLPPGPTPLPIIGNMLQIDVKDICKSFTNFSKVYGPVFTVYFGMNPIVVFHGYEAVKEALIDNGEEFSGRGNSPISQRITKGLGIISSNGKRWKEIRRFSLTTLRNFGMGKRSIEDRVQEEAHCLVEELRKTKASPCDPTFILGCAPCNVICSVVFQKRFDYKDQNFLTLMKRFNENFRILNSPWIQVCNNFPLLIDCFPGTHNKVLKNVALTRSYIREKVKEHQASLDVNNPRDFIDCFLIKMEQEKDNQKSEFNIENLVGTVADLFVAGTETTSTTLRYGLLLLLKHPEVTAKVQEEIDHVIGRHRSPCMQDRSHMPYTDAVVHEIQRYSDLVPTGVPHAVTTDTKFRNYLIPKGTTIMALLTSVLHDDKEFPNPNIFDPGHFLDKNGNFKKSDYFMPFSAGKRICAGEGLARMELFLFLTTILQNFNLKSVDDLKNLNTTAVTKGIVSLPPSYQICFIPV
# Method: as §1
# CYP2C9 = CYP2C9 (Homo sapiens, UniProt P11712)
# Method: as §1
# CYP2D6 = CYP2D6 (Homo sapiens, UniProt P10635)
# Method: as §1
# CYP3A4 = CYP3A4 (Homo sapiens, UniProt P08684)
# Method: as §1
# human CYP2A6 = target: T3, human CYP2A6 (Homo sapiens, UniProt P11509)
# T3 sequence (P11509 1-494): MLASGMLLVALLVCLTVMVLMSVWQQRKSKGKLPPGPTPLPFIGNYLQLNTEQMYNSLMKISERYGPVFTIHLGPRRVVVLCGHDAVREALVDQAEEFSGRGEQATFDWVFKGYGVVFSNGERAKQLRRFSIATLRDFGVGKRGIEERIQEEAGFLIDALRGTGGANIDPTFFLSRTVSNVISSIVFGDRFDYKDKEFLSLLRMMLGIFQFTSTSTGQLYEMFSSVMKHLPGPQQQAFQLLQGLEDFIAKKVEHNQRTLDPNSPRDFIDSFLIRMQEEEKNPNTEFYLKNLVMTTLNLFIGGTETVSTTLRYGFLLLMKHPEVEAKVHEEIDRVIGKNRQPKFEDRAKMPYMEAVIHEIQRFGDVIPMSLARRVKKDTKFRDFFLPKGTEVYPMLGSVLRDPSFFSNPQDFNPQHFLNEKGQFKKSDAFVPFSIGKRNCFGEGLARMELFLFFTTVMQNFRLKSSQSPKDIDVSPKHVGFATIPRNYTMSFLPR
# Method: as §1
# human CYP2B6 = target: T4, human CYP2B6 (Homo sapiens, UniProt P20813)
# T4 sequence (P20813 1-491): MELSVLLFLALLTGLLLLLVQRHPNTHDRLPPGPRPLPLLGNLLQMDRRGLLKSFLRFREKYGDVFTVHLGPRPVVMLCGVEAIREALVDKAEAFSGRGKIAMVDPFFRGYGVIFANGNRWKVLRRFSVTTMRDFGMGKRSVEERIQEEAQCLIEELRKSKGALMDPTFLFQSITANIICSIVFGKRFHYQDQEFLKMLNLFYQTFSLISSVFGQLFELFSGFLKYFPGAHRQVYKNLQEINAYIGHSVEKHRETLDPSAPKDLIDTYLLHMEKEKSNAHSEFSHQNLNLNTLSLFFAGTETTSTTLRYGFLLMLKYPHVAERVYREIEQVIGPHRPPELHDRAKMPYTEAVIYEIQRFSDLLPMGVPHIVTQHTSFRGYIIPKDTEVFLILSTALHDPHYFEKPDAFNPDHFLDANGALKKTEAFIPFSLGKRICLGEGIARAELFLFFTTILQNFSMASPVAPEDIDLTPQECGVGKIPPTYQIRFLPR
# Method: as §1
# human CYP2E1 = human CYP2E1 (Homo sapiens, UniProt P05181)
# Method: as §1
# Chain of CYP2C9 (P11712 whole entry): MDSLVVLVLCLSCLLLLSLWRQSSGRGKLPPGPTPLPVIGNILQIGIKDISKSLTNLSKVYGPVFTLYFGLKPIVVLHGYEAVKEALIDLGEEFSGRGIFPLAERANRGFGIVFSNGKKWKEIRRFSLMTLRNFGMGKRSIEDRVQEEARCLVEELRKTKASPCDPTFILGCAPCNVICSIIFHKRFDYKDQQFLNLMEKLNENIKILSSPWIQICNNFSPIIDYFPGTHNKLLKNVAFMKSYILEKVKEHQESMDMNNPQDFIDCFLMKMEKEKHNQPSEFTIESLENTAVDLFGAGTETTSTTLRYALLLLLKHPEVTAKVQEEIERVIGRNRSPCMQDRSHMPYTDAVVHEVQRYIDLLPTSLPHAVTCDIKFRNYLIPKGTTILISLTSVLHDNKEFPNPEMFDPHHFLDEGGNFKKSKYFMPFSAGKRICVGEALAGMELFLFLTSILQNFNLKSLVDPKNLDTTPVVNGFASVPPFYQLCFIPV
# Chain of CYP2D6 (P10635 whole entry): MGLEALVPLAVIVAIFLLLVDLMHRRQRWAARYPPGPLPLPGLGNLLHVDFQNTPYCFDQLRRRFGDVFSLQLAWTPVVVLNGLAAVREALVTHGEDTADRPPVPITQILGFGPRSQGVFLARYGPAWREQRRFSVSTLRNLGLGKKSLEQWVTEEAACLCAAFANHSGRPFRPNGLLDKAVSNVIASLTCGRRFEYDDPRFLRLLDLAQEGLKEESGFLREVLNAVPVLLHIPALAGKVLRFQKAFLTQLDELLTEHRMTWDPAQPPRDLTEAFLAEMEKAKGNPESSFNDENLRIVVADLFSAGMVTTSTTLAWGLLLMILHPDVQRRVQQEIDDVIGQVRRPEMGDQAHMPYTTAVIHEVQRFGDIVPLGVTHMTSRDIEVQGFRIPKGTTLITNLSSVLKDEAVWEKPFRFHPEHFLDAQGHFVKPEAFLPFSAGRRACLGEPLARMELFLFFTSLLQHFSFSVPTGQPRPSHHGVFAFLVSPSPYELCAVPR
# Chain of CYP3A4 (P08684 whole entry): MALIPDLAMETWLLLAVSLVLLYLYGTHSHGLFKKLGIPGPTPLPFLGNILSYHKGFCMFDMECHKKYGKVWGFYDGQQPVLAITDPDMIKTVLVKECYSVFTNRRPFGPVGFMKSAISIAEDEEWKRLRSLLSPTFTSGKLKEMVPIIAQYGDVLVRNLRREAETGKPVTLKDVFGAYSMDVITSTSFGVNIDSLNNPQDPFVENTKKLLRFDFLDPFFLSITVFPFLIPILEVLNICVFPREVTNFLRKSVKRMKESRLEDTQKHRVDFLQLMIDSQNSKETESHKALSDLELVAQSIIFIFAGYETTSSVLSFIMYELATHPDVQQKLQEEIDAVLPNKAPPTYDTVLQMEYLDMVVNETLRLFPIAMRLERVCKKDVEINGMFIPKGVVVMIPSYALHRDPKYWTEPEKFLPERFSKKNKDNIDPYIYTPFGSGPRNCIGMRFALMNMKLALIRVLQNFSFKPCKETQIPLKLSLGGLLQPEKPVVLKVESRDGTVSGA
# Chain of human CYP2E1 (P05181 whole entry): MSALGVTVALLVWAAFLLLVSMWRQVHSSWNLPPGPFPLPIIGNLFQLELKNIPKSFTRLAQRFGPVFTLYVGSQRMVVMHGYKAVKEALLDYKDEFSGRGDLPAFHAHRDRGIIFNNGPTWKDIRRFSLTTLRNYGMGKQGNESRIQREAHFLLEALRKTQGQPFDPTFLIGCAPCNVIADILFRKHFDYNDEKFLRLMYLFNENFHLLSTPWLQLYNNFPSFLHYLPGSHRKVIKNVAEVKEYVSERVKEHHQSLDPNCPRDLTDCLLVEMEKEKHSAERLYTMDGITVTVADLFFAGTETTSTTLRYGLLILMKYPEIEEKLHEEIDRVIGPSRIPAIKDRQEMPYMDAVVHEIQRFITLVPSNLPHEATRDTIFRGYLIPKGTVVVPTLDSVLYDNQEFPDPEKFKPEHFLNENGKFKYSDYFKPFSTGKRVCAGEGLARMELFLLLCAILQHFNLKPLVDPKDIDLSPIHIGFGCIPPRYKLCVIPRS
smiles,measurement,setting,value
"CN1CCC[C@H](CN2c3ccccc3Sc3ccccc32)C1 [(S)-mepazine, (S)-10-((1-methylpiperidin-3-yl)methyl)-10H-phenothiazine]",Contribution %,CYP1A2; CYP1A2,9.61%
same,contribution %,CYP1A2; CYP1A2,9.61%
same,half-life at 1 µM,"CYP1A2; human, recombinant CYP1A2, 1 µM, 50 pmol/ml of CYP protein, mean ± SD, n = 3",51.5 ± 5.99 min
same,CLint,"CYP1A2; recombinant CYP1A2, 1 µM, 50 pmol/ml of CYP protein, mean ± SD, n = 3",0.272 ± 0.0339 μL/min/pmol CYP
same,CLint,"CYP1A2; recombinant CYP1A2, 1 µM, 50 pmol/ml CYP protein",0.272 µL/min/pmol
same,Contribution %,CYP2C8; CYP2C8,12.8%
same,contribution %,CYP2C8; CYP2C8,12.8%
same,half-life at 1 µM,"CYP2C8; human, recombinant CYP2C8, 1 µM, 50 pmol/ml of CYP protein, mean ± SD, n = 3",57.2 ± 14.4 min
same,CLint,"CYP2C8; recombinant CYP2C8, 1 µM, 50 pmol/ml of CYP protein, mean ± SD, n = 3",0.254 ± 0.0720 μL/min/pmol CYP
same,CLint,"CYP2C8; recombinant CYP2C8, 1 µM, 50 pmol/ml CYP protein",0.254 µL/min/pmol
same,Contribution %,CYP2C9; CYP2C9,8.24%
same,contribution %,CYP2C9; CYP2C9,8.24%
same,half-life at 1 µM,"CYP2C9; human, recombinant CYP2C9, 1 µM, turnover observed for one or two replicates only, t1/2 reported as minimum",127 min
same,CLint,"CYP2C9; recombinant CYP2C9, 1 µM, turnover observed for one or two replicates only, Clint reported as maximum",0.109 μL/min/pmol CYP
same,CLint,"CYP2C9; recombinant CYP2C9, turnover observed in one of the three replicates",0.109 µL/min/pmol
same,Contribution %,CYP2D6; CYP2D6,11.0%
same,contribution %,CYP2D6; CYP2D6,11.0%
same,CYP isoform participating in metabolism,CYP2D6; based on expressed human cytochrome P450s and liver microsomes with specific inhibitors,CYP2D6 is major CYP isoform
same,half-life at 1 µM,"CYP2D6; human, recombinant CYP2D6, 1 µM, 50 pmol/ml of CYP protein, mean ± SD, n = 3",9.94 ± 0.819 min
same,CLint,"CYP2D6; recombinant CYP2D6, 1 µM, 50 pmol/ml of CYP protein, mean ± SD, n = 3",1.40 ± 0.112 μL/min/pmol CYP
same,CLint,"CYP2D6; recombinant CYP2D6, 1 µM, 50 pmol/ml CYP protein",1.40 µL/min/pmol
same,Contribution %,CYP3A4; CYP3A4,50.3%
same,contribution %,CYP3A4; CYP3A4,50.3%
same,half-life at 1 µM,"CYP3A4; human, recombinant CYP3A4, 1 µM, 50 pmol/ml of CYP protein, mean ± SD, n = 3",23.5 ± 2.35 min
same,CLint,"CYP3A4; recombinant CYP3A4, 1 µM, 50 pmol/ml of CYP protein, mean ± SD, n = 3",0.593 ± 0.0562 μL/min/pmol CYP
same,CLint,"CYP3A4; recombinant CYP3A4, 1 µM, 50 pmol/ml CYP protein",0.593 µL/min/pmol
same,Contribution %,human CYP2A6; CYP2A6,0.00%
same,metabolism by recombinant CYP isoform,human CYP2A6; recombinant CYP2A6,not found to substantially metabolize
same,CLint,"human CYP2A6; recombinant CYP2A6, 1 µM, turnover not significant and > 80% remaining at last time point reported as 0.00",0.00 μL/min/pmol CYP
same,t1/2,"human CYP2A6; recombinant CYP2A6, 1 µM, turnover not significant and > 80% remaining at last time point reported as ∞",∞
same,Contribution %,human CYP2B6; CYP2B6,0.00%
same,metabolism by recombinant CYP isoform,human CYP2B6; recombinant CYP2B6,not found to substantially metabolize
same,CLint,"human CYP2B6; recombinant CYP2B6, 1 µM, turnover not significant and > 80% remaining at last time point reported as 0.00",0.00 μL/min/pmol CYP
same,t1/2,"human CYP2B6; recombinant CYP2B6, 1 µM, turnover not significant and > 80% remaining at last time point reported as ∞",∞
same,Contribution %,human CYP2E1; CYP2E1,0.00%
same,metabolism by recombinant CYP isoform,human CYP2E1; recombinant CYP2E1,not found to substantially metabolize
same,CLint,"human CYP2E1; recombinant CYP2E1, 1 µM, turnover not significant and > 80% remaining at last time point reported as 0.00",0.00 μL/min/pmol CYP
same,t1/2,"human CYP2E1; recombinant CYP2E1, 1 µM, turnover not significant and > 80% remaining at last time point reported as ∞",∞
